Measured values as given in patent US20080095856A1, “Encapsulated Nanoparticles for Drug Delivery” (priority 2006, published 2008).
Peptide text beside a SMILES is read from it. * marks the point of attachment. X1 = O=C(O)[C@H]1CSC(c2nc3ccc(N*)cc3s2)=N1

Legend:
[1] = DPPH radical scavenger assay of antioxidative activity before and after SAS processing; type: biochemical; conditions: maximum UV absorbance before and after addition of quercetin
From the text: The antioxidative activity of quercetin has not been diminished by this supercritical fluid process for nanoparticle formation. A radical scavenger DPPH (2,2,-diphenyl-1-picrylhydrazyl) was used to measure the EC50 value of DPPH at maximum UV absorbance before and after addition of quercetin.
Quercetin. Quercetin has been encapsulated with PLA (MW 50,000 and 100,000) using the following process parameters: T=40 C, P=100 bar, CO2 flow rate 50 g/min, 5:100 quercetin:polymer ratio using methanol as the cosolvent. Results can be seen in FIGS. 4A-4C. […] A radical scavenger DPPH (2,2,-diphenyl-1-picrylhydrazyl) was used to measure the EC50 value of DPPH at maximum UV absorbance before and after addition of quercetin.

[2] = Biodistribution of SKLQ-aminoluciferin by BLI in L2G85 mice; type: in vivo
From the text: PSA is a chymotrypsin-like enzyme which specifically cleaves the C-terminus of glutamine (Q) in the peptide sequence, SKLQ-aminoluciferin. Prodrugs have been used to take advantage of this specificity of PSA. […] Where the peptides or prodrugs are encapsulated with polymer, the current shortcomings in delivery of tumor-specific peptides is overcome. The peptides or drugs can be encapsulated with a protective polymer coating, and the payload released in the vascularized tumor regions. This approach prevents non-specific distribution of the drug and ensures stability of the peptide/drug, and utilizes the active proteases that are specific to a disease state to activate a prodrug at the region of interest.
The strategies developed for these studies are utilized in the study of biodistribution of luciferin nanoparticles. The nanoparticles are also tested using a xenograft model of prostate cancer. Appropriate cell lines have been developed for conducting experiments to study human prostate cancer models in animals. […] Both LNCaP and PC3M cells have successfully been implanted into SCID mice, and their growth kinetics have been successfully quantified using BLI. Luciferase present in the cells is used as the read out for delivery of luciferin and can also be used as for assessing tumor burden when we transition to testing chemotherapeutic agents. […]

EC50 value of DPPH, before vs after SAS processing [1] | stability in the body ([2]; in vivo, acted upon by various enzymes) | SMILES | distribution in the animal ([2]; L2G85 mice)
the same before and after SAS processing |  | O=c1c(O)c(-c2ccc(O)c(O)c2)oc2cc(O)cc(O)c12 [quercetin] | 
 | unstable in the body | CC(C)C[C@H](NC(=O)[C@H](CCCCN)NC(=O)[C@@H](N)CO)C(=O)N[C@@H](CCC(N)=O)C(=O)Nc1ccc2nc(C3=N[C@@H](C(=O)O)CS3)sc2c1 [SKLQ-aminoluciferin] (H-SKLQ-X1; N-terminus and C-terminus assumed) | distributed non-specifically throughout the animal
